Measured values taken from ChEMBL document CHEMBL1287781, “Novel lipophilic 7H-pyrido[1,2,3-de]-1,4-benzoxazine-6-carboxylic acid derivatives as potential antitumor agents: improved synthesis and in vitro evaluation” (Bioorg Med Chem, 2010).
Active and inactive are the calls of the source. The calls are words filed in the database; no cut-off is given here.

Assays:
[1] = Anticancer activity against human U373MG after 5 days by MTT assay; assay type: functional, cell-based, U-373MG ATCC; conditions: U373 MG, 120 h
A549 [2] = test: Anticancer activity against human A549 after 5 days by MTT assay; assay type: functional, cell-based; conditions: A549, 120 h
PC-3 [3] = test: Anticancer activity against human PC3 after 5 days by MTT assay; assay type: functional, cell-based; conditions: PC-3, 120 h
LoVo [4] = test: Anticancer activity against human LoVo cells after 5 days by MTT assay; assay type: functional, cell-based; conditions: 120 h
MCF7 [5] = test: Anticancer activity against human MCF7 after 5 days by MTT assay; assay type: functional, cell-based; conditions: MCF7, 120 h
[6] = Toxicity in ip dosed B6D2F1 mouse after 28 days; assay type: organism-based; conditions: in vivo
[7] = Chemical stability of the compound in phosphate buffer at pH 7.4 after 7 days; assay type: physicochemical; conditions: read-out: Stability
A549 [8] = test: Anticancer activity against human A549 by sulforhodamine B assay; assay type: functional, cell-based
MCF7 [9] = test: Anticancer activity against human MCF7 by sulforhodamine B assay; assay type: functional, cell-based
U-373MG ATCC [10] = test: Antimigratory activity against human U373MG at 0.1 uM after 6 days by phase-contrast microscopy; assay type: functional, cell-based
U-373MG ATCC [11] = test: Antimigratory activity against human U373MG at 1 uM after 6 days by phase-contrast microscopy; assay type: functional, cell-based
U-373MG ATCC [12] = test: Anticancer activity against human U373MG after 3 to 5 days by MTT assay; assay type: functional, cell-based
A549 [13] = test: Anticancer activity against human A549 after 3 to 5 days by MTT assay; assay type: functional, cell-based
PC-3 [14] = test: Anticancer activity against human PC3 after 3 to 5 days by MTT assay; assay type: functional, cell-based
LoVo [15] = test: Anticancer activity against human LoVo cells after 3 to 5 days by MTT assay; assay type: functional, cell-based
MCF7 [16] = test: Anticancer activity against human MCF7 after 3 to 5 days by MTT assay; assay type: functional, cell-based

Row | Structure (SMILES) | IC50 (A549 [2]) [µM] | IC50 (PC-3 [3]) [µM] | IC50 (LoVo [4]) [µM] | IC50 (MCF7 [5]) [µM] | remaining at 168 h [7] [%] | IC50 (A549 [8]) [µM] | IC50 (MCF7 [9]) [µM] | IC50 [1] [µM] | MTD at 672 h [6] [mg/kg] | Activity (U-373MG ATCC [10]) | Activity (U-373MG ATCC [11]) | Activity (U-373MG ATCC [12]) | Activity (A549 [13]) | Activity (PC-3 [14]) | Activity (LoVo [15]) | Activity (MCF7 [16])
1 | CCCCCC(=O)OCOC(=O)c1cn2c3c(c(N4CCN(C)CC4)c(F)cc3c1=O)OC[C@@H]2C | 235 | 207 | 162 | 183 | – | – | – | 199 | > 80 | – | – | – | – | – | – | –
2 | CCCC(=O)OCOC(=O)c1cn2c3c(c(N4CCN(C)CC4)c(F)cc3c1=O)OC[C@@H]2C | 3 | 31 | 5 | 35 | > 92 | – | – | 40 | – | – | – | – | – | – | – | –
3 | CCCCCCCC(=O)OCOC(=O)c1cn2c3c(c(N4CCN(C)CC4)c(F)cc3c1=O)OC[C@@H]2C | 289 | 230 | 209 | 238 | > 90 | – | – | 243 | > 80 | – | – | – | – | – | – | –
4 | CCCCCCCCCC(=O)OCOC(=O)c1cn2c3c(c(N4CCN(C)CC4)c(F)cc3c1=O)OC[C@@H]2C | > 1000 | > 1000 | > 1000 | > 1000 | – | – | – | > 1000 | > 80 | – | – | – | – | – | – | –
5 | C[C@H]1COc2c(N3CCN(C)CC3)c(F)cc3c(=O)c(-c4nc5ccc([N+](=O)[O-])cc5s4)cn1c23 | – | – | – | – | – | > 10 | > 10 | – | – | – | – | – | – | – | – | –
6 | CO/N=C(/CN1CCN(c2cc3c(cc2F)c(=O)c(C(=O)O)cn3C2CC2)CC1)c1ccc(Cl)s1 | – | – | – | 2.9 | – | – | – | – | – | – | – | – | – | – | – | –
7 | CCCCCCCCCCCCCCCCCC(=O)OCOC(=O)c1cn2c3c(c(N4CCN(C)CC4)c(F)cc3c1=O)OC[C@@H]2C | 593 | 100 | 4 | 12 | – | – | – | 0.9 | – | inactive | inactive | – | – | – | – | –
8 | CCCCCCCCCCCCCC(=O)OCOC(=O)c1cn2c3c(c(N4CCN(C)CC4)c(F)cc3c1=O)OC[C@@H]2C | 617 | 71 | 21 | 6 | – | – | – | 8 | – | – | – | – | – | – | – | –
9 | CCCCCCCCCCCCCCCC(=O)OCOC(=O)c1cn2c3c(c(N4CCN(C)CC4)c(F)cc3c1=O)OC[C@@H]2C | 46 | 56 | 6 | 8 | > 93 | – | – | 4 | – | – | – | – | – | – | – | –

Continued, in another order:

Row | IC50 (A549 [2]) [µM] | IC50 (PC-3 [3]) [µM] | IC50 (LoVo [4]) [µM] | IC50 (MCF7 [5]) [µM] | remaining at 168 h [7] [%] | IC50 (A549 [8]) [µM] | IC50 (MCF7 [9]) [µM] | Structure (SMILES) | IC50 [1] [µM] | MTD at 672 h [6] [mg/kg] | Activity (U-373MG ATCC [10]) | Activity (U-373MG ATCC [11]) | Activity (U-373MG ATCC [12]) | Activity (A549 [13]) | Activity (PC-3 [14]) | Activity (LoVo [15]) | Activity (MCF7 [16])
10 | 6 | 12 | 5 | 16 | 100 | – | – | CCCCCCNC(=O)c1cn2c3c(c(N4CCN(C)CC4)c(F)cc3c1=O)OC[C@@H]2C | 4 | – | – | – | – | – | – | – | –
11 | 8 | 5 | 6 | 15 | – | – | – | CCCCCCCCCCCCCCCNC(=O)c1cn2c3c(c(N4CCN(C)CC4)c(F)cc3c1=O)OC[C@@H]2C | 7 | – | – | – | – | – | – | – | –
12 | 46 | 30 | 24 | 55 | > 97 | – | – | CCCCNC(=O)c1cn2c3c(c(N4CCN(C)CC4)c(F)cc3c1=O)OC[C@@H]2C | 113 | – | – | – | – | – | – | – | –
13 | 65 | 86 | 0.3 | 0.3 | > 91 | – | – | CCCCCCCCCCCC(=O)OCOC(=O)c1cn2c3c(c(N4CCN(C)CC4)c(F)cc3c1=O)OC[C@@H]2C | 0.2 | – | inactive | inactive | – | – | – | – | –
14 | 70 | 238 | 67 | 622 | – | – | – | C[C@H]1COc2c(N3CCN(C)CC3)c(F)cc3c(=O)c(C(=O)O)cn1c23 [LEVOFLOXACIN] | 188 | – | – | – | Dose-dependent effect | Dose-dependent effect | Dose-dependent effect | Dose-dependent effect | Dose-dependent effect
15 | 5 | 5 | 3 | 10 | – | – | – | CCCCCCCCCCCCNC(=O)c1cn2c3c(c(N4CCN(C)CC4)c(F)cc3c1=O)OC[C@@H]2C | 5 | – | – | – | – | – | – | – | –
16 | 3 | 4 | 1 | 5 | – | – | – | CCCCCCCNC(=O)c1cn2c3c(c(N4CCN(C)CC4)c(F)cc3c1=O)OC[C@@H]2C | 3 | – | – | – | – | – | – | – | –
17 | 3 | 3 | 3 | 5 | – | – | – | CCCCCCCCCCNC(=O)c1cn2c3c(c(N4CCN(C)CC4)c(F)cc3c1=O)OC[C@@H]2C | 3 | – | – | – | – | – | – | – | –
18 | 5 | 3 | 3 | 5 | > 98 | – | – | CCCCCCCCCCCCCCNC(=O)c1cn2c3c(c(N4CCN(C)CC4)c(F)cc3c1=O)OC[C@@H]2C | 3 | – | – | – | – | – | – | – | –
19 | 2.2 | 1.5 | 0.8 | 2.1 | 100 | – | – | CCCCCCCCNC(=O)c1cn2c3c(c(N4CCN(C)CC4)c(F)cc3c1=O)OC[C@@H]2C | 2.3 | – | – | – | Dose-dependent effect | Dose-dependent effect | Dose-dependent effect | Dose-dependent effect | Dose-dependent effect
